From patent US6696433B2, “Use of sex steroids function modulators to treat wounds and fibrotic disorders” (Renovo Limited, priority 1996, dated 2004)
Marks after values point to notes of the source that are not given here.

Experiments:
[1] = system: TGF-β1 secreted by dermal fibroblasts; assay: TGF-β levels in fibroblast conditioned media, mink lung cell growth inhibition assay; assay type: cell-based, human; conditions: for TGF-beta LEVELS: 24 hr; for active TGF-β1 (non-heat-activated samples): fibroblast conditioned media after 24 hr treatment, compared to control; for FOLD INDUCTION of TGF-beta levels: relative to control
Experimental: Human dermal fibroblasts were explanted from the 4 mm punch biopsy specimens of normal skin. Fibroblasts used in the study were cultured at 37° C. in 95% air; 5% CO2 at 100% relative humidity, in phenol red-free DMEM (Gibco), 100 U/ml penicillin, […], 1 mM sodium pyruvate, 2 mM L-glutamine, non-essential amino acids and charcoal-stripped 10% FCS (Gibco, UK) (to remove endogenous steroids).
Cultured cells at passage 3-5 were seeded overnight in 24-well plates at a density of 2×10^5 cells per well in serum free media. The following morning oestrogen or progesterone (made soluble by the incorporation of the carrier cyclodextrin; Sigma, Poole), ranging from 1 pM to 1 mM doses, were added to the medium for 24 hrs. All samples were assessed in triplicate. The media was removed after the 24 hr incubation. 1 mg/ml of aprotinin, leupeptin and pepstatin A was then added to the media which was used immediately in a TGF-β assay (see below). Controls included cyclodextrin at the appropriate concentration, and serum-free medium alone.
TGF-β levels in the media (2.1.5.2) were determined using a mink lung growth inhibition assay as described by Danielpour et al, (J Cell Physiol, 138 p79-86) Briefly, mink lung epithelial cells (MLECs) were maintained in DMEM and 10% FCS at 37° C. in 10% CO2. Subconfluent cells were trypsinized, resuspended in 10% FCS, pelleted at 500 g for 5 min, washed with 10 ml of assay buffer (DMEM, 2% FCS, 10 mM HEPES pH 7.4, penicillin 25 U/ml, streptomycin 25 μg/ml), resuspended in assay buffer and seeded at 10^5 cells/well in a 24-well Costar plate. After 1 hr conditioned media or control media (with varying concentrations of hormones ranging from 1 pM-1 mM or cyclodextrin alone) were added, 22 hrs later cells were pulsed with [^3H] thymidine (0.5 μCi/well) for 2 hrs at 37° C., and the procedure described above for the extraction and measurement of radioactivity followed (2.1.5.3). A standard curve was produced using 10-1000 pg/ml TGF-β standard (R&D) from which inhibition data could be converted to pg/ml. Results were presented as pg/ml TGF-β/10^5 cells (relative to control valves for each individual hormone concentration).

[2] = system: 4 mm punch biopsy wounds of the upper inner arm; assay: Topical oestrogen patch clinical trial of wound healing in elderly men and women; assay type: in vivo, human; parameters: key to Collagen Quantities: +=minimal quantities; ++=less than normal skin; +++=similar to normal skin; ++++=greater than normal skin; conditions: for Collagen Quantities: oestradiol patch, DAY 7; for % Rate of re-epithelialisation / Wound area: day 7 post-wounding; for scarring, microscopically and macroscopically (FIGS. 7 and 8): scored as in 2.1.4.2
Experimental: Approval for this study was given by the local Ethics Committee. Forty health-status defined volunteers split into four groups: (i) GROUP 3A comprised ten women with mean age 76.3 yr (Sd 5.6) who received oestrogen supplements (25 μg/24 hrs of oestradiol) (ii) GROUP 3B comprised ten women with mean age 72.5 yr (Sd 7.1) who received placebo instead of oestrogen. (iii) GROUP 3C comprised ten men with mean age 69.6 yr (Sd 3.6) who received oestrogen supplements (ii) GROUP 3D comprised ten men with mean age 71.8 yr (Sd 8.9) who received placebo instead of oestrogen. After informed consent subjects from each of Groups 3A, 3B, 3C and 3D underwent two 4 mm punch biopsies from the upper inner arm (a non sun-exposed site) following local infiltration with 1 ml 1% lignocaine. Each biopsy of normal skin was bisected and one-half embedded in Optimal Cutting Temperature compound (Miles Inc. Elkhart, Ind.), frozen over liquid nitrogen, and stored at −70° C., and one-half snap-frozen in liquid nitrogen and stored at −70° C. The area for biopsy was covered by a 2×3 cm patch (placebo Groups 3B and 3D or active oestradiol 3A and 3C) through which the biopsies were made. The patch was covered by a Multisorb dry gauze dressing (Smith & Nephew) and both were removed after 24 hrs. The active patches contained sufficient oestradiol such that the wound sites were exposed to 25 μg/24 hrs of oestradiol. Five subjects from Groups 3A, 3B, 3C and 3D underwent re-excision of the wounds at day 7 post-wounding, and the other five subjects from each group at day 84 post-wounding. The left upper inner arm was cleaned with isopropyl alcohol, elliptical excisions of the wounds were made following 1% lignocaine infiltration and two sutures were used to close the gap. Each wound was bisected and processed as described above (3.1.3). 7 μm paraffin-embedded sections were strained with H&E and Masson's Trichrome. The rate of re-epithelialisation (at day 7 post-wounding), and wound sizes as determined by planimetry, were determined with image analysis using an Olympus Vanox camera and PC image capture system. Collagen quantity within the wound was determined by two observers blinded to the identity of the specimen on the following scale +=minimal quantities; ++=less than normal skin; +++=similar to normal skin; ++++=greater than normal skin. The wound stiffness at day 80 was determined using the non-disruptive Dimensional Analysis System (Das). Previous studies have correlated wound breaking strength values (ultimate pressure at failure) to wound stiffness using this system. The system applies a multiaxial load (negative pressure) to the wound and measures the deformation due to the load of two reflective targets placed at the wound edges, using a high resolution camera and video processor. Pressure was applied to a maximum of 100 mmHg and then released, Stiffness was measured between 20 and 80 mmHg.

[3] = OLD person (2A or 2B) fibroblasts, mM dose
[4] = OLD person (2A or 2B) fibroblasts, nM dose
[5] = OLD person (2A or 2B) fibroblasts, pM dose
[6] = OLD person (2A or 2B) fibroblasts, μM dose
[7] = YOUNG person (2C) fibroblasts, mM dose
[8] = YOUNG person (2C) fibroblasts, nM dose
[9] = YOUNG person (2C) fibroblasts, pM dose
[10] = YOUNG person (2C) fibroblasts, μM dose
[11] = FEMALES (3A), patch 25 μg/24 hrs of oestradiol for 24 hrs
[12] = MALES (3C), patch 25 μg/24 hrs of oestradiol for 24 hrs

SMILES	TGF-beta LEVELS [1, 3] [pg/ml/10^5 cell/24 hr]	TGF-beta LEVELS [1, 4] [pg/ml/10^5 cell/24 hr]	TGF-beta LEVELS [1, 5] [pg/ml/10^5 cell/24 hr]	TGF-beta LEVELS [1, 6] [pg/ml/10^5 cell/24 hr]	TGF-beta LEVELS [1, 7] [pg/ml/10^5 cell/24 hr]	TGF-beta LEVELS [1, 8] [pg/ml/10^5 cell/24 hr]	TGF-beta LEVELS [1, 9] [pg/ml/10^5 cell/24 hr]	TGF-beta LEVELS [1, 10] [pg/ml/10^5 cell/24 hr]	active TGF-β1 (non-heat-activated samples) [1]	scarring, microscopically and macroscopically (FIGS. 7 and 8) [2]	other results
C[C@]12CC[C@@H]3c4ccc(O)cc4CC[C@H]3[C@@H]1CC[C@@H]2O [Oestrogen]	416 ± 80	280 ± 60	80 ± 50	315 ± 47	428 ± 58	312 ± 30	118 ± 24	282 ± 22	no increase	inferior quality of wound	Collagen Quantities ([2]; FEMALES (3A)): ++; % Rate of re-epithelialisation [2, 11]: 74.5 (10.5)* %; Wound area [2, 11]: 1204 (49)*; Collagen Quantities ([2]; MALES (3C)): ++; % Rate of re-epithelialisation [2, 12]: 62.5 (21.7) %; Wound area [2, 12]: 1173 (61)*; Wound area ([2]; oestrogen treatment, p<0.05): significantly reduced; Wound stiffness (Dimensional Analysis System) ([2]; day 80 post-wounding): not affected; rate of re-epithelialization ([2]; female (3A) and male subjects (3C) relative to placebo controls): accelerated
CC(=O)[C@H]1CC[C@H]2[C@@H]3CCC4=CC(=O)CC[C@]4(C)[C@H]3CC[C@]12C [Progesterone, progesterone]	33 ± 13	90 ± 38	32 ± 13	65 ± 15	82 ± 13	115 ± 20	70 ± 31	96 ± 13	no increase	superior scaring	FOLD INDUCTION of TGF-beta levels [1, 3]: 1; FOLD INDUCTION of TGF-beta levels [1, 4]: 2.6*; FOLD INDUCTION of TGF-beta levels [1, 5]: 1; FOLD INDUCTION of TGF-beta levels [1, 6]: 2*; FOLD INDUCTION of TGF-beta levels [1, 7]: 0.8; FOLD INDUCTION of TGF-beta levels [1, 8]: 1; FOLD INDUCTION of TGF-beta levels [1, 9]: 0.6; FOLD INDUCTION of TGF-beta levels [1, 10]: 1; increase in TGF-β1 levels ([1]; nM and μM doses, fibroblasts from the aged subjects (2A or 2B)): 2 fold; effect on TGF-β1 production compared to controls ([1]; young fibroblasts (Group 2C)): no significant effect
